Data on one compound can be found in patent US20230364084A1, “METHODS FOR PREVENTING OR TREATING CONDITIONS RELATED TO PIKFYVE ACTIVITY” (The Regents of the University of Michigan, priority 2020, published 2023).

Structures are written as SMILES. pIC50, pKd: −log10 of the molar value.

One assay deals with Myc-CaP cells. The assay is described as follows: long-term survival assay in Myc-CaP cells. It is filed as cell-based, mouse. The procedure: Single cell suspensions were seeded into 96-well plates at a density of 1,000-30,000 cells per well. Long-term survival was determined after 14 days of drug incubation. Viable cells were fixed with 4% formaldehyde and subsequently stained with 1% crystal violet. IC50 was calculated using GraphPad Prism.

Assay [1] deals with MDA-PCa-146-10 neuroendocrine prostate cancer PDX. As to the kind of experiment: MDA-PCa-146-10 patient-derived xenograft. The assay is classed as in vivo, mouse. To be noted: 30 mg/kg. How it is done: The University of Texas M.D. Anderson Cancer Center (MDACC) patient-derived xenografts (PDX) series has been previously described^62-64. PDXs were derived from men with CRPC undergoing palliative resections using described protocols^65,66. MDA-PCa-146-12 and 146-10 PDX were derived from a patient initially diagnosed with Gleason 3+4=7 prostate adenocarcinoma with an initial PSA of 10.7 ng/ml. […] PDXs were maintained in male SCID mice by surgically implanting 2 mm^3 tumors coated with 100% Matrigel to both flanks of mice. Once tumors reached 100-200 mm^3 in size, mice were randomized and divided into different treatment groups receiving either 30 mg/kg ESK981 or vehicle (ORA-PLUS) by oral gavage 5 days per week.
(Xenograft models place foreign cells or tissue in a host animal.)

Assay [2] has as its system LC3-II in prostate cancer cell lines. The assay is described as follows: LC3 lipidation western blot. The assay is classed as cell-based, human. How it is done: Cell lysates were harvested in Pierce RIPA Lysis buffer (Thermo Scientific) containing protease inhibitor cocktail tablets (Roche) and phosphatase inhibitor cocktail (Millipore). Protein concentration was measured using the DC Protein Assay (Bio-Rad) to ensure an equal amount of protein was loaded onto a gel. The denatured lysates were separated on NuPage 4-12% Bis-Tris Midi Protein gels (Novex) and transferred to 0.45-μm PVDF transfer membrane (Immobilon) using a TransBlot Turbo dry transfer machine (Bio-Rad). The membrane was incubated in blocking buffer (5% non-fat dry milk, Tris-buffered saline with 0.1% Tween 20) for 1 hour at room temperature. The membrane was then incubated with the listed antibodies for 1 hour at room temperature, followed by overnight incubation at 4° C. Chemiluminescent detection using ECL Prime (Amersham) and HyBlot CL autoradiography film (Denville Scientific) was used to visualize the blots. Antibodies used in the immunoblotting assays were against ATG5 (Cat No. 12994S, Cell Signaling Technology), ATG7 (Cat No. 8558S, Cell Signaling Technology), ULK1 (Cat No. 8054S, Cell Signaling Technology), Beclin1 (Cat No. 4122S, Cell Signaling Technology), FIP200 (Cat No. 12436S, Cell Signaling Technology), LC3A/B (Cat No. 127415, Cell Signaling Technology), PIKfyve (Cat No. AF7885, R&D Systems), and GAPDH (Cat No. 3683S, Cell Signaling Technology).
(In general: In western blotting, separated proteins are transferred to a membrane and probed.)

The test system of the next assay is VCaP cells. As to the kind of experiment: human cytokine array of conditioned medium. It is filed as cell-based. The conditions noted are these: VCaP conditioned media, 300 nM, 24 hours. How it is done:
Cells were seeded in 6-well plates, and conditioned medium was collected after 24 hours of drug incubation. Cytokine expression was determined by proteome profiler mouse XL cytokine array (Cat No. ARY028, R&D System) or proteome profiler human XL cytokine array kit (Cat No. ARY022, R&D System) according to the manufacturer's instructions.

Another assay deals with VEGFR-1 (FLT1) (Homo sapiens, UniProt P17948). The conditions noted are these: cited from earlier work.
VEGFR-1 (FLT1), sequence (P17948 27-1338, species assumed): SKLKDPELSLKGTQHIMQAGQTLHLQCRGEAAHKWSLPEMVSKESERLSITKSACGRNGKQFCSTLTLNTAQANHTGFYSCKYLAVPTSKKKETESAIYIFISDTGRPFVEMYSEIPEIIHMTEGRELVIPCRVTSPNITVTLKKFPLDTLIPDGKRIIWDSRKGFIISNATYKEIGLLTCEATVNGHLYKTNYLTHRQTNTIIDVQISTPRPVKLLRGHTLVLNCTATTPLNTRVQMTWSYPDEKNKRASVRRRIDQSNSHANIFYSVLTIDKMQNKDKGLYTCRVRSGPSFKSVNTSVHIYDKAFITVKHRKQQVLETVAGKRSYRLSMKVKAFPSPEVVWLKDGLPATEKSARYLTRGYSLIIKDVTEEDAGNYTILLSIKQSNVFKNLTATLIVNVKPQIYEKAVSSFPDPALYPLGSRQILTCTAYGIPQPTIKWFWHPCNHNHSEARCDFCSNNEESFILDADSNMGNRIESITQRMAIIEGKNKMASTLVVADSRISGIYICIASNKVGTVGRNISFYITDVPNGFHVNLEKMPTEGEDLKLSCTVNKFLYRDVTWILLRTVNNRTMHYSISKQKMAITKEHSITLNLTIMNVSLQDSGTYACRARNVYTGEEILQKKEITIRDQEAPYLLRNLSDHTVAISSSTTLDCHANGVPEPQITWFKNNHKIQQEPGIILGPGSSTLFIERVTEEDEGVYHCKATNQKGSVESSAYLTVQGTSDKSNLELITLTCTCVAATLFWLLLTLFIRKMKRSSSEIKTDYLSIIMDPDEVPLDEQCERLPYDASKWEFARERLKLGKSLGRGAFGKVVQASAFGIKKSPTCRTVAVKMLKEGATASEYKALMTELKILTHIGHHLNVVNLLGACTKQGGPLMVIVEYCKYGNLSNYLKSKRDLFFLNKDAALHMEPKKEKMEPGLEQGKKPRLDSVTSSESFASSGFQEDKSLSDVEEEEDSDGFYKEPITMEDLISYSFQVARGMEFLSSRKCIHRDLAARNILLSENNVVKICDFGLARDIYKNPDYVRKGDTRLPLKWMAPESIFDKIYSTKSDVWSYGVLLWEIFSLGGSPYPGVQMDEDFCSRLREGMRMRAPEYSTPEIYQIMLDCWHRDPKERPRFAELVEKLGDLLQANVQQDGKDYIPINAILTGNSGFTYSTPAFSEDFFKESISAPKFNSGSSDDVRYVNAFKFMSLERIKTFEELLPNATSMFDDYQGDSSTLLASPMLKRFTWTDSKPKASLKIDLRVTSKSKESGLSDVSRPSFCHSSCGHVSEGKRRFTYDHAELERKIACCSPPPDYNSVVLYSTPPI
The target in assay [3] is T1, PIKfyve (Homo sapiens, UniProt Q9Y2I7). The assay is described as follows: lipid kinase competition assay (scanLIPID panel, 22 lipid kinases). It is filed as binding. Details: purchased DiscoveRX (KINOMEscan scanLIPID panel; KdELECT). The conditions noted are these: 1 μM ESK981, only target among 22 phosphoinositide kinases. The procedure: Lipid kinase competition assays for 22 lipid kinases, including clinically-relevant mutants, were performed using DiscoveRX KINOEscan® platform scanLIPID® panel. Detailed information is described on the DiscoveRX website (https://www.discoverx.com/technologies-platforms/competitive-binding-technology/kinomescan-technology-platform).
T1 sequence (Q9Y2I7 whole entry): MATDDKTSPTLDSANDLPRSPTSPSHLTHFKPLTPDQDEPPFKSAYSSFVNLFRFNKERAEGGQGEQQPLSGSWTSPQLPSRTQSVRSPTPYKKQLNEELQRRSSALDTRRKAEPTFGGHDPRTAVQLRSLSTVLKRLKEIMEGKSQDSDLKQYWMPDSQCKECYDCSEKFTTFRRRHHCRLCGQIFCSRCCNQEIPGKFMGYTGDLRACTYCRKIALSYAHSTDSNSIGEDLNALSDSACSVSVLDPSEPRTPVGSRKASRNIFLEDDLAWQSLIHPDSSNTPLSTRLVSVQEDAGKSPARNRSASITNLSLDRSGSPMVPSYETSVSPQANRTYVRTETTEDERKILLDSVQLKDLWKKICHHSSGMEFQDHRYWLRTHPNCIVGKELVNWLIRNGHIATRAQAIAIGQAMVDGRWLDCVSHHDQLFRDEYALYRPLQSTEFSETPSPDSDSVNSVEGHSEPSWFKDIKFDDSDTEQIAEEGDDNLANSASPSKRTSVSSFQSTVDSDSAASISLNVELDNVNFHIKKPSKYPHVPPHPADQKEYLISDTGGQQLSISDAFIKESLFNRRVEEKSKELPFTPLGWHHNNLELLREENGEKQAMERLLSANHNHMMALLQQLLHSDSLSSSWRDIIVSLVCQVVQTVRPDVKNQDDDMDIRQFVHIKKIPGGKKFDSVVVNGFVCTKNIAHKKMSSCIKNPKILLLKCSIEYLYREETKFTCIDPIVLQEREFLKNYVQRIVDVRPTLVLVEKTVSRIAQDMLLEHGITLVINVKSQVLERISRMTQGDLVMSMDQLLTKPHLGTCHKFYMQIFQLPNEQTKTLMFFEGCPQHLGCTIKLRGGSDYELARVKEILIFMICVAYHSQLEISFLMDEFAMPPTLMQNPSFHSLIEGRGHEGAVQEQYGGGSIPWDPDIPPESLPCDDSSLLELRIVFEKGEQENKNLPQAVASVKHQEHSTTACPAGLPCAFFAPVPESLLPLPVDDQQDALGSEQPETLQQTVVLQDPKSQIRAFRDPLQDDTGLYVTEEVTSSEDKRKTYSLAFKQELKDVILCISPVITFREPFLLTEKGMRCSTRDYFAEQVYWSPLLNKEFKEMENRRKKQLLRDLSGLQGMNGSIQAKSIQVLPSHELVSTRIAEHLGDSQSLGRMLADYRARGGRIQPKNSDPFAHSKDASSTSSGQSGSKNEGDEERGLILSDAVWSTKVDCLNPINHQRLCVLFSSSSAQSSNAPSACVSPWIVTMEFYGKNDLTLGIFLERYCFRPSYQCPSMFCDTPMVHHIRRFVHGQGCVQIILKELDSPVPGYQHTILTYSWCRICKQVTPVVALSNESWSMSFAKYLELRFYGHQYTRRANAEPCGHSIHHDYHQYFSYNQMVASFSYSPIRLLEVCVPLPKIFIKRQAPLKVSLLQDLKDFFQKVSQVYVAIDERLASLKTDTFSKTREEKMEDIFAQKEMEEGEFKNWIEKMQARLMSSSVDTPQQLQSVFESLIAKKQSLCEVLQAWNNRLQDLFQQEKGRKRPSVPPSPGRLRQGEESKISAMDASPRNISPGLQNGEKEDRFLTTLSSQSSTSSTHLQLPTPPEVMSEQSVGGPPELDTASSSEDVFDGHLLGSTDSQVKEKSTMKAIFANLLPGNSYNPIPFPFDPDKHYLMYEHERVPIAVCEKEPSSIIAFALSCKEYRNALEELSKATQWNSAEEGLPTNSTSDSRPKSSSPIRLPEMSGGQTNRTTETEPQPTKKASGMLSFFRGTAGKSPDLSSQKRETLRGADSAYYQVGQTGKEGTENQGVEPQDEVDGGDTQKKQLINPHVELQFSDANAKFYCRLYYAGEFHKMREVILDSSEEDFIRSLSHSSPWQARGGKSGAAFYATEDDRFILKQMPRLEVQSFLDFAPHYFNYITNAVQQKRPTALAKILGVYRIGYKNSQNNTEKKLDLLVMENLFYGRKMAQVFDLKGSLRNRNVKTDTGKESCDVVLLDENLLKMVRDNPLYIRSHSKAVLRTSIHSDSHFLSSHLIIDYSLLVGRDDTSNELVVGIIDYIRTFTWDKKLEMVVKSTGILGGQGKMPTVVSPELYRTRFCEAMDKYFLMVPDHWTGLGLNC

Assay [4] addresses T1, PIKfyve. The assay is described as follows: kinase dissociation constant analysis (KdELECT). The assay is classed as binding. Also noted: purchased DiscoveRX (KINOMEscan scanLIPID panel; KdELECT). The conditions noted are these: 11-point dose-response, duplicate. How it is done: Quantitative binding constants (Kd) of ESK981 to PIKfyve, PIP5K1A, PIP5K1C, and PIK3CA were generated using KdELECT® platform (DiscoveRX). An 11-point dose-response of ESK981 (0.05-3000 nM) was used, and the experiment was performed in duplicate. Detailed information is described on the DiscoveRX website (www.discoverx.com).

As a reminder, the pIC50 is the IC50 on a negative log10 scale, so that one unit is a factor of ten. One may read the pKd as the negative decadic logarithm of the Kd, by convention in mol/L. Read a high pKd as a small Kd. `CC(C)Cn1c2ccc(Nc3ncccn3)cc2c2c3c(c4c(c21)CCc1nn(C)cc1-4)C(=O)NC3` [ESK981, 13-isobutyl-4-methyl-10-(pyrimidin-2-ylamino)-1,2,4,7,8,13-hexahydro-6H-indazolo[5,4-a]pyrrolo[3,4-c]carbazol-6-one]: the “efficacy compared with crizotinib and cabozantinib” value in the assay on Myc-CaP cells is “most efficacious compound”. Also, the pIC50 in the assay with Myc-CaP cells (Mus musculus, read-out: growth inhibitory IC50) was 7.46. Moreover, in assay [1] (day 21), the tumor weights entry is reported as “significant decreases in tumor weights”. In addition, in assay [1] (oral gavage 5 days per week, SCID mice), the tumor growth result is “Significant inhibition of tumor growth”. In assay [2] (VCaP cells, 300 nM), the “time to evidence of increase in LC3-II” value is listed as “within three hours”. Besides, in assay [2] (numerous prostate cancer cell lines, 24 hours, dose-dependent), the “total level of LC3 lipidation” value is listed as “increase in the total level of LC3 lipidation”. Also, in the assay on VCaP cells, the “cytokines induced (array of 105 cytokines)” value is listed as “significantly induced only CXCL10 and, to a lesser extent, CCL2”. Further, the activity against kinase result at VEGFR-1 (FLT1) is “potent activity”. In addition, the “competition in affinity binding screen” value at PIKfyve [3] is reported as “completely competed away”. For the same compound, the pKd on PIKfyve [4] is 7.92.
